Data from US8669243B2, “Steroid-derived cyclopamine analogs and methods for using the same in the prevention or treatment of cancer” (The Wistar Institute, priority 2007, dated 2014).
“Also recorded” adds a separate entry of the source.

Columns and labels:
Format in all cases: cell-based
[1] = test system: SHH-induced GLI-luciferase activity in SHH-Light2 cells; assay: SHH-Light2 GLI-dependent firefly luciferase reporter assay
Experimental: Shh-Light2 cells were seeded at 70% confluency in 24 wells, 24 hours prior to treatment. They were then cultured for an additional 48 hours in standard serum-containing media prior to analysis. GLI-binding site luciferase activities were measured using the luciferase reporter assay system with the luciferase kit (PROMEGA).
SHH-light2 cells were treated with SHH (600 ng/ml, R&D) alone or in combination with cyclopamine (CYC), analog 33 or analog 37. CYC, analog 33 and analog 37 were used at […].
One screen involved examining the activation of the SHH pathway using the well-established cell line, SHH-Light2 cells. This cell line is a 3T3 clone that stably expresses a GLI-dependant firefly luciferase (Taipale, et al. (2000) Nature 406:1005-1009). […] Concentrations of each analog, ranging from 20 μM to 2.5 μM, were tested. SHH-Light2 cells were seeded 24 hours prior to treatment. They were then cultured for an additional 48 hours in standard serum-containing media prior to analysis. GLI-binding site luciferase activities were measured using a commercially available luciferase reporter assay system.
The activity of analogs 33 and 37 on the SHH signaling pathway was analyzed using the SHH-Light2 cells described herein.

[2] = test system: granule neuron precursors (GNPs) purified from postnatal mouse cerebella; assay: SHH-induced granule neuron precursor (GNP) proliferation, BrdU incorporation; design: inhibition of SHH-induced GNP proliferation (percentage BrdU positive): dose or concentration left out as unconfirmed; conditions: for inhibition of SHH-induced GNP proliferation (BrdU-positive cells): 10 μM, SHH 600 ng/ml, FIG. 2; for inhibition of SHH-induced GNP proliferation (percentage BrdU positive): BrdU 6 hours before fixation, FIG. 5
Experimental: Purified GNPs were either not treated (CTR, n=4) or treated with SHH (600 ng/ml (n=4), alone or in combination with cyclopamine (10 μM, n=4), tomatidine (10 μM, n=4), analog 18 (10 μM, n=4) or estrone 15 (10 μM, n=2). BrdU-positive cells were counted with a fluorescent microscope using a 20× objective, wherein at least ten independent fields for each culture condition were counted per culture condition.
It has previously been shown that SHH is a potent mitogen for granule neuron precursors (GNPs) purified from postnatal mouse cerebella (Dahmane & Ruiz I Altaba (1999) Development 126:3089-3200). This well-established system was used to test the instant steroid-derived cyclopamine analogs for their activity in inhibiting this proliferative response of GNPs to SHH. […] GNPs were purified from postnatal day 5 (P5) mouse cerebella, plated on poly-D-lysine in serum-free DMEM-F12 and treated with either SHH alone or SHH plus the analogs. Treatment with SHH and cyclopamine was used as a control for inhibition.
GNPs were purified from postnatal day 5 (P5) mouse cerebella and treated with either SHH alone, or SHH in combination with cyclopamine, analog 33, or analog 37, each used at […]. BrdU was added to the media 6 hours before fixation. Percentage of brdU positive was determined following counting with a fluorescence microscope using a 20× objective (AXIOSKOP, ZEISS). At least five independent fields for each culture condition were counted. The analysis was performed on three independent experiments. Statistical analysis was performed with the Student t test.

[3] = test system: human medulloblastoma DAOY cells; assay: DAOY cell survival, colorimetric MTT assay; conditions: 72 hours treatment; FIG. 6
Experimental: DAOY cells were treated for 72 hours with either cyclopamine (CYC), analog 33 or analog 37 before cell survival was assayed with a colorimetric MTT assay. Absorbance at 570 nm is directly proportional to the number of living cells.
Abnormal activation of the SHH signaling pathway has been linked to various cancers including medulloblastoma, a malignancy of the cerebellum with the highest incidence of all human pediatric malignant brain tumors. A subset of these tumors is thought to arise from deregulation of GNP development in the cerebellum and require SHH signaling for their growth. It was therefore tested whether analogs 33 and 37 were also efficient in reducing the viability of medulloblastoma cells using human medulloblastoma DAOY cells.

Compound	inhibition of SHH-induced activation of GLI-dependant firefly luciferase ([1]; 2.5 μM, recombinant SHH (200 ng), FIG. 1C)	inhibition of SHH-induced activation of GLI-dependant firefly luciferase ([1]; 5 μM, recombinant SHH (200 ng), FIG. 1B)	inhibition of SHH-induced activation of GLI-dependant firefly luciferase ([1]; 10 μM, recombinant SHH (200 ng), FIG. 1A)	inhibition of SHH-induced GNP proliferation (BrdU-positive cells) [2]	inhibition of SHH signaling activity (GLI-luciferase) ([1]; SHH 600 ng/ml, FIG. 4)	inhibition of SHH-induced GNP proliferation (percentage BrdU positive) [2]	cell survival / viability of DAOY cells (absorbance at 570 nm) [3]	inhibition of SHH-induced reporter activity ([1]; 5 μM, recombinant SHH (200 ng), 48 hours, FIGS. 3 and 4)
C[C@]12CC[C@@H]3c4ccc(O)cc4CC[C@H]3[C@@H]1CC[C@@]21Cc2ncccc2O1 [compound 18]	inhibited SHH activity comparable to cyclopamine	inhibited SHH activity comparable to cyclopamine	effectively inhibited SHH activity	as potent as cyclopamine				
C[C@]12CC[C@@H]3c4ccc(O)cc4CC[C@H]3[C@@H]1CC[C@@]21C[C@@H]([C@H]2CCCN2)O1 [compound 37]					strong inhibition of SHH signaling activity comparable to that of cyclopamine	as potent as cyclopamine; also recorded: blocked	significant decrease of cell survival; also recorded: active in reducing DAOY cells viability	
CC1=C2C[C@H]3[C@@H](CC=C4C[C@@H](O)CC[C@@]43C)[C@@H]2CC[C@]12O[C@@H]1C[C@H](C)CN[C@H]1[C@H]2C [cyclopamine]				significantly decreased cell proliferation		blocked	significant decrease of cell survival	largely blocked
C[C@H]1CC[C@]2(NC1)O[C@H]1C[C@H]3[C@@H]4CC[C@H]5C[C@@H](O)CC[C@]5(C)[C@H]4CC[C@]3(C)[C@H]1[C@@H]2C [tomatidine, reference compound]				had no effect				
